{"source": "patent US6372208B1", "about": "“Method of reducing an immune response to a recombinant virus” (The Trustees of the University of Pennsylvania, priority 1996, dated 2002)", "key": {"L929 cells": {"system": "L929 cells", "test": "IFN-γ in the same lymphocyte culture supernatant measured on L929 cells", "assay_type": "cell-based, C57BL/6 mice", "conditions": "MLN lymphocytes day 28, restimulated with virus", "procedure": "Lymphocytes from MLN of the control group and IL-12 treated group of C57BL/6 mice were harvested 28 days after administration of H5.010CBALP and restimulated in vitro with UV-inactivated H5.010CMVlacZ at 10 particles/cell for 24 hours. Cell-free supernatants were assayed for the presence of IL-2 or IL-4 on HT-2 cells (an IL-2 or IL-4-dependent cell line) [Yang I, cited above]. Presence of IFN-γ in the same lymphocyte culture supernatant was measured on L929 cells as described [Yang I, cited above]. Stimulation index (S.I.) was calculated by dividing ^3H-thymidine cpm incorporated into HT-2 cells cultured in supernatants of lymphocytes restimulated with virus by ^3H-thymidine cpm incorporated into HT-2 cells cultured in supernatants of lymphocytes incubated in antigen-free medium."}, "[1]": {"system": "human Ad5 recombinant vector", "test": "Neutralizing antibody to adenovirus in BAL (Hela cell lacZ transduction)", "assay_type": "in vivo, C57BL/6 mice", "conditions": "day 28, versus control mice", "procedure": "BAL samples obtained from animals 28 days after primary exposure to recombinant virus were evaluated for neutralizing antibodies to adenovirus and anti-adenovirus antibody isotypes as follows. The same four groups of C57BL/6 mice, i.e., control, CD4^+ depleted, IL-12 treated and IFN-γ treated, were infected with H5.010BALP. Neutralizing antibody was measured in serially-diluted BAL samples (100 μl) which were mixed with H5.010CBlacZ (1×10^6 pfu in 20 μl), incubated for 1 hour at 37° C., and applied to 80% confluent Hela cells in 96 well plates (2×10^4 cells per well). After 60 minutes of incubation at 37° C., 100 μl of DMEM containing 20% FBS was added to each well. Cells were fixed and stained for β-galactosidase expression the following day.\nThe results are shown graphically in FIGS. 1A through 1C, which summarize neutralizing antibody titer, and the relative amounts (OD405) of IgG and IgA present in BAL samples."}, "[2]": {"system": "recombinant adenoviruses H5.010CMVlacZ and H5.010CBALP", "test": "Tail vein adenovirus gene transfer to mouse liver and readministration (Example 4)", "assay_type": "in vivo, C57BL/6 mice", "conditions": "liver, second virus day 28, read day 31", "procedure": "Recombinant virus (H5.010CMVLacZ or H5.010CBALP) was inactivated with ultraviolet light in the presence of 8-methoxypsoralen. Briefly, purified virus was resuspended in 0.33 mg/ml of 8-methoxypsoralen solution and exposed to a 365 nm UV light source on ice at 4 cm from the lamp filter for 30 min. The virus was then passed over a Sephadex G-50 column equilibrated with PBS. […] Suspensions of the viruses (2×10^9 pfu in 100 μl of PBS) were infused into the tail vein of 6 to 8 week old female mice as etailed in the following experiments. Each experiment was performed with a minimum of three mice in which transgene expression was quantified in a section of each of 5 lobes. The minimum analysis was 15 sections per experimental condition.\ne. C57BL/6 mice were inoculated i.p. with 0.5 ml aliquots of 1:10 dilution of mouse ascites fluid containing the GK1.5 (anti-CD4 Mab, ATCC TIB207) at days −3, 0 and +3 as described in Example 2. This was equivalent to 100 μg of purified monoclonal antibody per injection. These CD4^+ cell-depleted mice were infected with H5.010CMVlacZ at day 0 and H5.010CBALP at day 28 (“CD4Ab mice”); and\nf. […]\nMice from each group were subsequently euthanized and liver tissues evaluated for lacZ expression by X-gal histochemistry (magnification ×100) at day 3 and day 28; and for ALP expression by histochemical staining at day 31 (magnification ×100). […]"}, "[3]": {"system": "adenovirus (H5.010CMVlacZ)", "test": "Neutralizing antibody to adenovirus in serum", "assay_type": "in vivo, C57BL/6 mice", "conditions": "IL-12 i.p., liver-directed", "text": "Mice from each group were subsequently euthanized and liver tissues evaluated for lacZ expression by X-gal histochemistry (magnification ×100) at day 3 and day 28; and for ALP expression by histochemical staining at day 31 (magnification ×100). Development of neutralizing antibody to adenovirus in each group of mice was examined in serum samples obtained at day 28.\nSerum samples were also collected at days 0, 3, 7, 14, 21, 28, 35 and 42 from each group of animals and assayed for neutralizing antibody titer. Serum samples were incubated at 56° C. for 30 minutes and then diluted in DMEM in twofold steps starting from 1:20. Each serum dilution (100 μl) was mixed with H5.010CMVlacZ (2×10^6 pfu in 20 μl), incubated for 1 hour at 37° C., and applied to 80% confluent Hela cells in 96-well plates (2×10^4 cells per well). After 60 minutes incubation at 37° C., 100 μl of DMEK containing 20% FBS were added to each well. Cells were fixed and stained for β-galactosidase expression on the following day. All of the cells stained blue in the absence of serum samples. […] FIGS. 3A-3D report the antibody titer expressed as a function of days post-infection."}, "H5.010CMVlacZ virus": {"system": "H5.010CMVlacZ virus", "test": "Adenovirus-specific IgG1 and IgG2a in serum by ELISA", "assay_type": "in vivo, C57BL/6 mice", "conditions": "28 days after infection", "procedure": "A. Serum samples obtained from the C57BL/6 mice (“B6”) and IL-12 treated C57BL/6 (“B6+IL12”) mice of Example 5 were tested 28 days after infection for adenovirus-specific IgG1 and IgG2a antibody isotypes.\nA solid phase enzyme linked immunosorbent assay (ELISA) using purified H5.010CMVlacZ virus as antigen was performed. Immunolon-2-U microtiter plates (Fisher) were coated with 200 ng/well of viral antigen in […] of PBS for 6 hours at 37° C., washed three times in PBS, and blocked in PBS/1% BSA overnight at 4° C. The following day, 4-fold serial diluted serum samples were added to antigen-coated plates and incubated for 4 hours at 37° C. Plates were washed three times in PBS/1% BSA and incubated with goat anti-mouse IgG1-biotin or goat anti-mouse IgG2a-biotin (CALTAG Laboratories, San Francisco, Calif.) at 1:5000 dilution for 2 hours at 37° C. Plates were washed as above and Avidin-ALP (Sigma) was added to each well at 1:5000 dilution for 1 hour at 37° C. Wells were again washed as above and PNPP substrate was added. Optical densities were read on a Biorad model 450 microplate reader."}}}
{"substance": "interleukin-12 [IL-12]", "values": [{"measurement": "[formula] (column head not readable; IFN-γ in supernatant)", "setting": "L929 cells", "value": 160}, {"measurement": "reduction of neutralizing antibody in BAL", "setting": "[1]", "value": 20, "unit": "fold"}, {"measurement": "readministration of virus (gene transfer)", "setting": "[2]", "value": "insufficient to allow efficient gene transfer upon readministration of virus"}, {"measurement": "reduction in neutralizing antibody", "setting": "[3]", "value": 3, "unit": "fold"}, {"measurement": "anti-viral IgG1 in serum", "setting": "H5.010CMVlacZ virus", "value": "less anti-viral IgG1"}, {"measurement": "anti-viral IgG2a in serum", "setting": "H5.010CMVlacZ virus", "value": "increased production of IgG2a"}]}
